{"source": "paper PMC12089418", "about": "“Quantifying VMAT2 target occupancy at effective valbenazine doses and comparing to a novel VMAT2 inhibitor: a translational PET study” (Neuropsychopharmacology, 2025)", "key": {"VMAT2 [1]": {"target": "T1, VMAT2 (Macaca fascicularis, UniProt A0A2K5UVB8)", "assay": "[18F]AV-133 baseline PET test-retest", "type": "in vivo, cynomolgus macaques", "conditions": "2 NHPs, caudate and putamen, baseline scans ~5 months apart", "description": "Test-retest variability of BPND in the caudate and putamen were calculated as3 TRTV%=100xBPND1−BPND2/(BPND1+BPND2)/2"}, "[2]": {"system": "chorea associated with Huntington’s Disease", "design": "method as in PMID 37210099", "conditions": "valbenazine 80 mg; cited from earlier work"}, "VMAT2 [3]": {"system": "VMAT2", "conditions": "cited from earlier work"}, "TD patients": {"system": "TD patients", "design": "method as in PMID 28320223", "conditions": "6 weeks, cited from earlier work"}, "VMAT2 [4]": {"target": "VMAT2 (Homo sapiens, UniProt Q05940)", "sequence (Q05940 whole entry)": "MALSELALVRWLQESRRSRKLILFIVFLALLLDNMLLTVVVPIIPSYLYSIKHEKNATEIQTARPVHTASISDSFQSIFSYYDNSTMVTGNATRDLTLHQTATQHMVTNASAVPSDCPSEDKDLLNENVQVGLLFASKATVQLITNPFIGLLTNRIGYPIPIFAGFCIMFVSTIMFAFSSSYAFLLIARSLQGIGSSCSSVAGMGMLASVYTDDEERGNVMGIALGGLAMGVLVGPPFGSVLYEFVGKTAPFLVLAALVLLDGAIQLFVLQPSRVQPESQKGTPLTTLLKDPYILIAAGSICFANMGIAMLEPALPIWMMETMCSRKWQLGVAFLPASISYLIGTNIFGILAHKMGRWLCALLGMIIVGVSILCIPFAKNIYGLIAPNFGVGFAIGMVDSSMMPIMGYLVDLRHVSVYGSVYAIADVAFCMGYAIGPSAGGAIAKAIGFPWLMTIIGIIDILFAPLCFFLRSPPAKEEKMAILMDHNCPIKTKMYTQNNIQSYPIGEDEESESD", "assay": "Estimated human VMAT2 %TO from human PK and NHP PET free EC50", "type": "in vivo", "design": "from tissue; host or cells: brain of healthy male volunteers (caudate, putamen)", "conditions": "for VMAT2 %TO at Cavg / VMAT2 %TO at Cmax / VMAT2 %TO at Ctrough: from free NBI-98782 and NHP PET EC50", "description": "Valbenazine human plasma exposure metrics in patients were estimated with a population pharmacokinetic (PK) analysis and plasma protein binding (PPB) data. […] These steady-state concentrations, in conjunction with free EC50 from NHP PET for blocking compounds was used to estimate %TO in humans. Plasma concentrations of NBI-750142 following 60 mg BID dose were estimated using plasma concentrations following a single oral dose of 60 mg NBI-750142 using the principle of superposition."}, "VMAT2 [5]": {"target": "T2, VMAT2 (Rattus norvegicus, UniProt Q01827)", "T2 construct": "from tissue; host or cells: rats dosed in vivo; tissue and read-out method not described", "T2 sequence (Q01827 whole entry)": "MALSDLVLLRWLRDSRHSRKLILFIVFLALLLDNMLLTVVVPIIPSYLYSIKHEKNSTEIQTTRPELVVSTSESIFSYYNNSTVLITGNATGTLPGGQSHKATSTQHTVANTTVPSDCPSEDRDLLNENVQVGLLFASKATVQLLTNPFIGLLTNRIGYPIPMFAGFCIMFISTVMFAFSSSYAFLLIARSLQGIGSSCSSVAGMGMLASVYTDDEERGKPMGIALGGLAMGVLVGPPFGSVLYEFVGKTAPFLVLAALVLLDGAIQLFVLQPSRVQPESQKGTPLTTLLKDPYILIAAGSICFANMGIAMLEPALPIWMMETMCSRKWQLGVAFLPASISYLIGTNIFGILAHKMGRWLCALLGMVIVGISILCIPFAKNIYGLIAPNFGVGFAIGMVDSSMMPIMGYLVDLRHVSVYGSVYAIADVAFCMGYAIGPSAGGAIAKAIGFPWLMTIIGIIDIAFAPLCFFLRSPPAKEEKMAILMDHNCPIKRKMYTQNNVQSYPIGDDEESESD", "assay": "Rat NBI-98782 PK-%TO study", "type": "in vivo", "conditions": "Data on file"}, "[6]": {"assay": "Plasma protein binding by equilibrium dialysis, cynomolgus monkey plasma", "type": "in vitro ADME, cynomolgus monkeys", "conditions": "both sexes, pooled plasma, read-out: fraction unbound in plasma (fu_p)"}, "VMAT2 [7]": {"target": "T1, VMAT2", "design": "method as in PMID 32122751", "conditions": "bolus administration; radioligand [+]-α-[11C]dHTBZ; cited from earlier work"}, "other targets": {"system": "other targets", "design": "method as in PMID 28776237, PMID 28404690, PMID 29680151", "conditions": "cited from earlier work"}}, "note": "Read-outs that look alike come from different tables or passages of the source."}
{"smiles": "COc1cc2c(cc1OCCC[18F])CCN1C[C@@H](CC(C)C)[C@H](O)C[C@H]21", "note": "[[^18F]AV-133]", "values": [{"measurement": "test-retest variability of baseline BPND", "setting": "VMAT2 [1]", "value": "< 10", "unit": "%"}]}
{"smiles": "COc1cc2c(cc1OC)[C@H]1C[C@@H](OC(=O)[C@@H](N)C(C)C)[C@H](CC(C)C)CN1CC2", "note": "[valbenazine]", "values": [{"measurement": "Cohen's d, chorea", "setting": "[2]", "value": 0.9}, {"measurement": "potency at VMAT2 relative to NBI-98782 (fold less potent)", "setting": "VMAT2 [3]; parent compound vs active metabolite", "value": "~ 40 fold"}, {"measurement": "Cohen's d, AIMS score reduction", "setting": "TD patients; valbenazine 40 mg once daily oral", "value": 0.5}, {"measurement": "patients with robust AIMS response (>50% reduction from baseline)", "setting": "TD patients; valbenazine 40 mg", "value": 24, "unit": "%"}, {"measurement": "Cohen's d, AIMS score reduction", "setting": "TD patients; valbenazine 80 mg once daily oral", "value": 0.9}, {"measurement": "patients with robust AIMS response (>50% reduction from baseline)", "setting": "TD patients; valbenazine 80 mg", "value": 40, "unit": "%"}, {"measurement": "VMAT2 %TO at Cavg", "setting": "VMAT2 [4]; 40 mg VBZ QD", "value": "~ 80%"}, {"measurement": "VMAT2 %TO at Cmax", "setting": "VMAT2 [4]; 40 mg VBZ QD", "value": 82, "unit": "%"}, {"measurement": "VMAT2 %TO at Ctrough", "setting": "VMAT2 [4]; 40 mg VBZ QD", "value": 73, "unit": "%"}, {"measurement": "VMAT2 %TO at Cavg", "setting": "VMAT2 [4]; 40 mg VBZ QD, listed as VBZ", "value": 79, "unit": "%"}, {"measurement": "VMAT2 %TO at Cavg", "setting": "VMAT2 [4]; 80 mg VBZ QD", "value": 89, "unit": "%"}, {"measurement": "VMAT2 %TO at Cmax", "setting": "VMAT2 [4]; 80 mg VBZ QD", "value": 91, "unit": "%"}, {"measurement": "VMAT2 %TO at Ctrough", "setting": "VMAT2 [4]; 80 mg VBZ QD", "value": "above 85%"}, {"measurement": "VMAT2 %TO at Ctrough", "setting": "VMAT2 [4]; 80 mg VBZ QD, listed as VBZ", "value": 85, "unit": "%"}, {"measurement": "VMAT2 %TO estimations at steady state", "setting": "VMAT2 [4]; 80 mg valbenazine daily, Ctrough to Cmax", "value": "~ 90%"}, {"measurement": "VMAT2 occupancy achieved by once daily valbenazine treatment", "setting": "VMAT2 [4]; 40 and 80 mg once daily", "value": "80–90%"}]}
{"smiles": "COc1cc2c(cc1OC)C1CC(O)C(CC(C)C)CN1CC2", "note": "(stereo not drawn) [NBI-98782, (+)-α-dHTBZ (dihydrotetrabenazine)]", "values": [{"measurement": "NBI-98782 PK-%TO relationship, valbenazine-dosed vs NBI-98782-dosed rats", "setting": "VMAT2 [5]", "value": "nearly identical"}, {"measurement": "potency at VMAT2", "setting": "VMAT2 [3]", "value": "nanomolar potency"}, {"measurement": "fraction unbound", "setting": "[6]", "value": 0.4}, {"measurement": "ED50 (dose vs VMAT2 occupancy)", "setting": "VMAT2 [7]", "value": 0.055, "unit": "mg/kg"}, {"measurement": "inhibition of other targets", "setting": "other targets", "value": "minimal to non-detectable inhibition"}]}
